We go through 25 compounds from patent US20240383898A1, “PYRIDO RING COMPOUND, PREPARATION METHOD THEREFOR, INTERMEDIATE, COMPOSITION, AND APPLICATION” (YIYOU BIOTECH (SHANGHAI) CO., LTD, priority 2021, published 2024).

One experiment has as its target T1, JAK2 (Homo sapiens, UniProt O60674).
T1 construct: purchased Carna 08-045
The experiment can be described thus: In vitro activity test of JAK2 kinase (Caliper EZ Reader conversion assay). Format: biochemical. Particulars: enzyme activity, 10 concentrations from 1000 nM, 3-fold dilution. On the procedure:
(§1) In Vitro Activity Test of JAK1 and JAK2 Kinases
(§2) • Centrifuge (manufacturer: Eppendorf, model: 5430) • ELISA Instrument (Manufacturer: Perkin Elmer, Model: Caliper EZ Reader 1I) • Echo 550 (Manufacturer: Labcyte, Model: Echo 550)
(§3) (1) Prepare 1 Kinase buffer.
(§4) (2) Compound concentration gradient preparation: The test compound was tested at 1000 nM, 3-fold dilution, 10 concentrations, two-well assay, and configured to a 100-fold final concentration in a 384-well plate. 250 nl of the test compound was then transferred to the 384 reaction plate using Echo550. 250 nl of 100% DMSO was added to each of the negative and positive control wells.
(§5) (3) Prepare 2.5 times the final concentration of kinase solution with 1×Kinase buffer.
(§6) (4) Add 10 μL of 2.5 times the final concentration of kinase solution to the compound wells and 10 μL of 1×Kinase buffer to the negative control wells.
(§7) (5) Centrifuge at 1000 rpm for 30 seconds, mix well with shaking, and incubate at room temperature for 10 minutes.
(§8) (6) Prepare a 25/15-fold final concentration of mixture of ATP and Kinase substrate with 1×Kinase buffer.
(§9) (7) Add 15 μL of a mixture of 25/15 times the final concentration of ATP and substrate to start the reaction.
(§10) (8) Centrifuge the 384-well plate at 1000 rpm for 30 seconds, mix well with shaking, and incubate at room temperature for an appropriate amount of time.
(§11) (9) Stop the kinase reaction by adding 30 μL of termination solution, centrifuge at 1000 rpm for 30 seconds, and mix well with shaking.
(§12) (10) Read the conversion rate with Caliper EZ Reader.
(§13) where: Conversion %_sample is the conversion rate reading of the sample-, Conversion %_min: the average value of the negative control wells, representing the conversion reading of the wells without enzyme activity: Conversion %-max: the average value of the positive control wells, representing the conversion reading of the wells without compound inhibition.
(§14) The log value of concentration was used as the X-axis and the percentage inhibition as the Y-axis, and the function of the analytical software GraphPad Prism 5; log(inhibitor) vs. response -Variable slope, was used to lit dose-effect curves to obtain the IC50) values of each compound on enzyme activity.
(§15) The formula is Y=Bottom+(Top-Bottom)/(1+10^((LogIC50-X)*HillSlope))
(§16) The 1C50 data are specified in Table 1.

Another experiment concerns the target T2, JAK1 (Homo sapiens, UniProt P23458).
T2 construct: purchased Carna 08-114
The experiment can be described thus: In vitro activity test of JAK1 kinase (Caliper EZ Reader conversion assay). In kind it is biochemical. Particulars: enzyme activity, 10 concentrations from 1000 nM, 3-fold dilution. How it is done: as §1, §2, §3, §4, §5, §6, §7, §8, §9, §10, §11, §12, §13, §14, §15, §16

T1 sequence (O60674 whole entry, species assumed): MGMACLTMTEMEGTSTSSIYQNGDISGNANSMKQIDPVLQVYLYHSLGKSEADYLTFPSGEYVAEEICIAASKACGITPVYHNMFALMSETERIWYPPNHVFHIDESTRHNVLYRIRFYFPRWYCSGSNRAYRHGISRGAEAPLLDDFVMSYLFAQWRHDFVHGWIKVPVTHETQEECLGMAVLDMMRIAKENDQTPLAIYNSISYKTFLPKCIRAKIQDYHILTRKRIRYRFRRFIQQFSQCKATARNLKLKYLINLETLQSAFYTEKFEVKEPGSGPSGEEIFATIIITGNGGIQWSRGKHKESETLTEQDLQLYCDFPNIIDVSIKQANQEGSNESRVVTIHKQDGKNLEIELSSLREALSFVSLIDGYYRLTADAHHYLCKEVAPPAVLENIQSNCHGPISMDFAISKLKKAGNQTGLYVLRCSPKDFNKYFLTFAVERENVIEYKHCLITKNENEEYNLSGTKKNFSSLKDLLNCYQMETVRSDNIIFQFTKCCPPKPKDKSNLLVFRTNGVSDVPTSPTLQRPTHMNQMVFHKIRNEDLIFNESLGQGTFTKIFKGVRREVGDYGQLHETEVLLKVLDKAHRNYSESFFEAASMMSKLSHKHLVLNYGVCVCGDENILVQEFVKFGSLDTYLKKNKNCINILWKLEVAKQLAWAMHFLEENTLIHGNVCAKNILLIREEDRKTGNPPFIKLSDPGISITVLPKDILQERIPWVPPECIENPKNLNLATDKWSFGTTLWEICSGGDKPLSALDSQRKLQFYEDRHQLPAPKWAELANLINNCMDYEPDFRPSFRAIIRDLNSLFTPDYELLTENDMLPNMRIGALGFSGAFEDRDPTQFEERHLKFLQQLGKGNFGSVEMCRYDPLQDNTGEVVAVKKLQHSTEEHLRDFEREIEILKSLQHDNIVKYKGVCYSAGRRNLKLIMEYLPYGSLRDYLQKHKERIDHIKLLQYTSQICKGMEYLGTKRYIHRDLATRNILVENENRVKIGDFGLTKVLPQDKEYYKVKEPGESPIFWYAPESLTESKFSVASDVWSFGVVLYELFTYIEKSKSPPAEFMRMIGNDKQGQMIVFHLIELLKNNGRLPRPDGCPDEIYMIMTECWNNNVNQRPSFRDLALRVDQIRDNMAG
T2 sequence (P23458 whole entry, species assumed): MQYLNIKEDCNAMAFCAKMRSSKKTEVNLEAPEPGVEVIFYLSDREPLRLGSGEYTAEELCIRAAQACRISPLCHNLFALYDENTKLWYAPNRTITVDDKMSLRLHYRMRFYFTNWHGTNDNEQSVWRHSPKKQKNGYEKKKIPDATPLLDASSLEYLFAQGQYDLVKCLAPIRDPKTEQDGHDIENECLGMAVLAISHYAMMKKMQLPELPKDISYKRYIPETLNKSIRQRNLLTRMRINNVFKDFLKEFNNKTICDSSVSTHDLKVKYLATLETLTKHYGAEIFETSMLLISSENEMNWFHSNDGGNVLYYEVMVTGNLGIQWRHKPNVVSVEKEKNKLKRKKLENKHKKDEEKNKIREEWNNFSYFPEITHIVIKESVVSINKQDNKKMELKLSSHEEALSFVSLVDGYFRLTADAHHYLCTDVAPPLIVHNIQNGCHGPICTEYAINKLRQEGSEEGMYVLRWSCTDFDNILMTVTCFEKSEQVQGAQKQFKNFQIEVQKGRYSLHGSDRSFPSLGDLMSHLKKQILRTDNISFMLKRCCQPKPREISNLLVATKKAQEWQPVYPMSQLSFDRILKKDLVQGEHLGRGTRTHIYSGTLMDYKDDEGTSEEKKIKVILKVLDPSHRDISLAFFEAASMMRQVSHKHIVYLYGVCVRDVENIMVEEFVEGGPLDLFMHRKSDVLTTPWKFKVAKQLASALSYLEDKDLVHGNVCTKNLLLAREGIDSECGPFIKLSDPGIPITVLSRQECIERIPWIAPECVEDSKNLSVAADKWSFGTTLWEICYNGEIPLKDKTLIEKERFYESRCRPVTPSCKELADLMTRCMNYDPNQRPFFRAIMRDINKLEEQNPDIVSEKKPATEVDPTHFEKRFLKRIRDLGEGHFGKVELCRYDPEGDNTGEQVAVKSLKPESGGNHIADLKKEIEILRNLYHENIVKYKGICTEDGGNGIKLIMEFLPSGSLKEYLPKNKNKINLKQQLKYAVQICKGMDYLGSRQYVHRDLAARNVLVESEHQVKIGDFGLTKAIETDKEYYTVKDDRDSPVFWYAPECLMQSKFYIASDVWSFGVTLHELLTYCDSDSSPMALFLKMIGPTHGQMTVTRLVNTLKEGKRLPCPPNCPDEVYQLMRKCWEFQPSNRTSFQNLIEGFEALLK

On to `N#Cc1ccc(-n2c(-c3cccc(O)c3)nc3cnc4[nH]ccc4c32)cc1` [LXS56, 4-(2-(3-Hydroxyphenyl)imidazo[4,5-d]pyrrolo[2,3-b]pyridin-1(6H)-yl)benzonitrile], for which the IC50 was in the range of 100 to 1000 nM against JAK2 and 10 to 100 nM against JAK1.
On the same counts, the results for `CCCS(=O)(=O)N1CCC(n2c([C@@H](C)O)nc3cnc4[nH]ccc4c32)C1` (stereo in doubt) [LXS21, (R)-1-(1-((R)-1-(Propylsulfonyl)pyrrolidin-3-yl)-1,6-dihydroimidazo[4,5-d]pyrrolo[2,3-b]pyridin-2-yl)ethanol] are 100 to 1000 nM and 100 to 1000 nM.
Consider `OCc1ccc(-c2nc3cnc4[nH]ccc4c3n2[C@H]2CCN(CCCC(F)(F)F)C2)o1` [LXS98, (S)-(5-(1-(1-(4,4,4-trifluorobutyl)pyrrolidin-3-yl)-1,6-dihydroimidazo[4,5-d]pyrrolo[2,3-b]pyridin-2-yl)furan-2-yl)methanol], for which the IC50 against JAK2 and against JAK1 was 10 to 100 nM each time.
Consider `CCCS(=O)(=O)N1CCC(n2c(-c3cccnc3N)nc3cnc4[nH]ccc4c32)C1` (centres unmarked) [LXS47, 3-(1-(1-(propylsulfonyl)pyrrolidin-3-yl)-1,6-dihydroimidazo[4,5-d]pyrrolo[2,3-b]pyridin-2-yl)pyridin-2-amine], for which the IC50 on JAK2 and against JAK1 was 100 to 1000 nM throughout.
`C[C@@H](O)c1nc2cnc3[nH]ccc3c2n1[C@@H]1CN(CCCCC#N)CC12CC2` [LXS72, 5-((S)-7-(2-((R)-1-Hydroxyethyl)imidazo[4,5-d]pyrrolo[2,3-b]pyridin-1(6H)-yl)-5-azaspiro[2,4]hept-5-yl)pentanonitrile]: the IC50 against JAK2 and on JAK1 was 10 to 100 nM each time.
Consider `O=C(NCC(F)(F)F)N1CCC(n2c(-c3ccc(CO)o3)nc3cnc4[nH]ccc4c32)C1` (stereo in doubt) [LXS23, (R)-3-(2-(5-(hydroxymethyl)furan-2-yl)imidazo[4,5-d]pyrrolo[2,3-b]pyridin-1(6H)-yl)-N-(2,2,2-trifluoroethyl)pyrrolidine-1-carboxamide], for which the IC50 at JAK2 and at JAK1 was 100 to 1000 nM each time.
`CCCS(=O)(=O)N1CCC(n2c(-c3ncc[nH]3)nc3cnc4[nH]ccc4c32)C1` (centres unmarked) [LXS18, 2-(1H-imidazol-2-yl)-1-(1-(propylsulfonyl)pyrrolidin-3-yl)-1,6-dihydroimidazo[4,5-d]pyrrolo[2,3-b]pyridine]: the IC50 at JAK2 and against JAK1 was 10 to 100 nM each time.
In the case of `C[C@@H](O)c1nc2cnc3[nH]ccc3c2n1-c1ccc(C#N)cc1` [LXS54, (R)-4-(2-(1-Hydroxyethyl)imidazo[4,5-d]pyrrolo[2,3-b]pyridin-1(6H)-yl)benzonitrile], the IC50 at JAK2 and against JAK1 was 100 to 1000 nM throughout.
Take `C[C@@H](O)c1nc2cnc3[nH]ccc3c2n1C1CCN(CCC#N)C1` (stereo partly drawn) [LXS49, 3-(3-(2-((R)-1-Hydroxyethyl)imidazo[4,5-d]pyrrolo[2,3-b]pyridin-1(6H)-yl)pyrrolidin-1-yl)propanenitrile]: the IC50 is 100 to 1000 nM against JAK2 and 10 to 100 nM against JAK1.
The corresponding values for `CCC(C(=O)NCC(F)(F)F)N1CC[C@H](n2c([C@@H](C)O)nc3cnc4[nH]ccc4c32)C1` (stereo partly drawn) [LXS76, 2-((S)-3-(2-((R)-1-Hydroxyethyl)imidazo[4,5-d]pyrrolo[2,3-b]pyridin-1(6H)-yl)pyrrolidin-1-yl)-N-(2,2,2-trifluoroethyl)butanamide] are 100 to 1000 nM and under 10 nM.
Consider `C[C@@H](O)c1nc2cnc3[nH]ccc3c2n1[C@@H]1CN(CCCC#N)CC12CC2` [LXS69, 4-((S)-7-(2-((R)-1-Hydroxyethyl)imidazo[4,5-d]pyrrolo[2,3-b]pyridin-1(6H)-yl)-5-azaspiro[2,4]hept-5-yl)butanenitrile], for which the IC50 against JAK2 and against JAK1 was 10 to 100 nM each time.
Turning to `Cc1ccc(-c2nc3cnc4[nH]ccc4c3n2-c2cnn(CCC#N)c2)o1` [LXS50, 3-(4-(2-(5-Methylfuran-2-yl)imidazo[4,5-d]pyrrolo[2,3-b]pyridin-1(6H)-yl)-1H-pyrazol-1-yl)propanenitrile], the IC50 is under 10 nM against JAK2 and 100 to 1000 nM against JAK1.
On the same counts, the results for `C[C@@H](O)c1nc2cnc3[nH]ccc3c2n1[C@H]1CCN(CCCC(F)(F)F)C1` [LXS71, (R)-1-(1-((S)-1-(4,4,4-Trifluorobutyl)pyrrolidin-3-yl)-1,6-dihydroimidazo[4,5-d]pyrrolo[2,3-b]pyridin-2-yl)ethanol] are 100 to 1000 nM and under 10 nM.
On the same counts, the results for `N#C[C@H]1CC[C@H](n2c(-c3ccccc3O)nc3cnc4[nH]ccc4c32)CC1` (stereo in doubt) [LXS38, trans-4-(2-(2-Hydroxyphenyl)imidazo[4,5-d]pyrrolo[2,3-b]pyridin-1(6H)-yl)cyclohexanecarbonitrile] are 10 to 100 nM and 10 to 100 nM.
For `N#CCCn1cc(-n2c(-c3ccccc3F)nc3cnc4[nH]ccc4c32)cn1` [LXS83, 3-(4-(2-(2-Fluorophenyl)imidazo[4,5-d]pyrrolo[2,3-b]pyridin-1(6H)-yl)-1H-pyrazol-1-yl)propanenitrile], the IC50 against JAK2 and against JAK1 was 10 to 100 nM in each case.
On to `Cc1ccc(-c2nc3cnc4[nH]ccc4c3n2C2CCC(C#N)CC2)s1` (stereo in doubt) [LXS28, trans-4-(2-(2-Methylthiophen-5-yl)imidazo[4,5-d]pyrrolo[2,3-b]pyridin-1(6H)-yl)cyclohexanecarbonitrile], for which the IC50 at JAK2 and at JAK1 was 10 to 100 nM each time.
Consider `C[C@@H](O)c1nc2cnc3[nH]ccc3c2n1[C@H]1CCN(CCCCC#N)C1` [LXS68, 5-((S)-3-(2-((R)-1-Hydroxyethyl)imidazo[4,5-d]pyrrolo[2,3-b]pyridin-1(6H)-yl)pyrrolidin-1-yl)pentanonitrile], for which the IC50 was 100 to 1000 nM against JAK2 and under 10 nM at JAK1.
As for `CCCS(=O)(=O)N1CCC(n2c(-c3ccc(O)cc3O)nc3cnc4[nH]ccc4c32)C1` (centres unmarked) [LXS31, 4-(1-(1-(Propylsulfonyl)pyrrolidin-3-yl)-1,6-dihydroimidazo[4,5-d]pyrrolo[2,3-b]pyridin-2-yl)benzene-1,3-diol], the IC50 on JAK2 and on JAK1 was 100 to 1000 nM throughout.
In the case of `N#C[C@H]1CC[C@H](n2c(-c3ccccc3F)nc3cnc4[nH]ccc4c32)CC1` (stereo in doubt) [LXS40, trans-4-(2-(2-Fluorophenyl)imidazo[4,5-d]pyrrolo[2,3-b]pyridin-1(6H)-yl)cyclohexanecarbonitrile], the IC50 at JAK2 and at JAK1 was 10 to 100 nM throughout.
On to `C[C@@H](O)c1nc2cnc3[nH]ccc3c2n1[C@H]1C[C@H](CO)N(CCCC(F)(F)F)C1` [LXS91, (R)-1-(1-((3S,5R)-5-(hydroxymethyl)-1-(4,4,4-trifluorobutyl)pyrrolidin-3-yl)-1,6-dihydroimidazo[4,5-d]pyrrolo[2,3-b]pyridin-2-yl)ethan-1-ol], for which the figures for the IC50 against JAK2 and against JAK1 were 100 to 1000 nM and under 10 nM, respectively.
On the same counts, the results for `CCCS(=O)(=O)N1CCC(n2c(-c3ccc(CO)o3)nc3cnc4[nH]ccc4c32)C1` (centres unmarked) [LXS16] are 10 to 100 nM and 10 to 100 nM.
`CCCS(=O)(=O)N1CCC(n2c([C@@H](C)O)nc3cnc4[nH]ccc4c32)C1` (stereo partly drawn) [LXS05, (1R)-1-(1-(1-(propylsulfonyl)pyrrolidin-3-yl)-1,6-dihydroimidazo[4,5-d]pyrrolo[2,3-b]pyridin-2-yl)ethan-1-ol]: the values for the concentration for half-maximal inhibition (IC50) against JAK2 and on JAK1 were 100 to 1000 nM and 10 to 100 nM, respectively.
On the same counts, the results for `C[C@@H](O)c1nc2cnc3[nH]ccc3c2n1C1CCN(C(=O)NCC(F)(F)F)C1` (stereo in doubt) [LXS20, (R)-3-(2-((R)-1-Hydroxyethyl)imidazo[4,5-d]pyrrolo[2,3-b]pyridin-1(6H)-yl)-N-(2,2,2-trifluoroethyl)pyrrolidine-1-carboxamide] are 100 to 1000 nM and 100 to 1000 nM.
The corresponding values for `C[C@@H](O)c1nc2cnc3[nH]ccc3c2n1[C@@H]1CCN(CCC#N)C1` [LXS58, 3-((R)-3-(2-((R)-1-Hydroxyethyl)imidazo[4,5-d]pyrrolo[2,3-b]pyridin-1(6H)-yl)pyrrolidin-1-yl)propanenitrile] are 10 to 100 nM and 10 to 100 nM.
The corresponding values for `C[C@@H](O)c1nc2cnc3[nH]ccc3c2n1C1CCN(C(=O)c2ccc(C#N)cc2)C1` (stereo partly drawn) [LXS02, 4-(3-(2-((R)-1-hydroxyethyl)imidazo[4,5-d]pyrrolo[2,3-b]pyridin-1(6H)-yl)pyrrolidin-1-carbonyl)benzonitrile] are 100 to 1000 nM and 100 to 1000 nM.
